This is an account of results in PMC10995865 (Virus Research, 2024).

Assay [1] deals with AsfvPolX (African swine fever virus, UniProt P42494). As to conditions: cited from earlier work.
Assay [2] addresses AsfvPolX-DNA complex (African swine fever virus, UniProt P42494). The experiment in a line: biochemical. Format: binding.

Chain of AsfvPolX (P42494 whole entry, looked up): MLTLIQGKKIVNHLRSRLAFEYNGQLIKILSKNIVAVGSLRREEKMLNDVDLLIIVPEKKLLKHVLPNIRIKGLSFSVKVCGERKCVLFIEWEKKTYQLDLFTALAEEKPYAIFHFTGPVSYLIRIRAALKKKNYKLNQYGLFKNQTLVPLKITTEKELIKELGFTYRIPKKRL
Chain of AsfvPolX-DNA complex (P42494 whole entry, looked up, one chain of several): as the sequence (P42494 whole entry, looked up) above

The term inhibition denotes the percentage by which the read-out fell short of the control. `COc1cc(Nc2ncc(F)c(Nc3ccc4c(n3)N(COP(=O)(O)O)C(=O)C(C)(C)O4)n2)cc(OC)c1OC` [fostamatinib]: the “Effect on AsfvPolX activity” value in assay [1] is on record as “dose-dependent decrease”. Besides, the inhibition at 100 µM in assay [2] (read-out: Inhibition of AsfvPolX-DNA complex formation) stood at 0%.

Regarding pentagastrin, the “Inhibition of AsfvPolX activity” value in assay [1] (100 µM) is recorded as 60%. In assay [2] (100 µM), the “Inhibition of AsfvPolX-DNA complex formation” value was found to be 0%.
